The values below come from patent US9890138B2, “Diaminopyrimidine derivatives and processes for the preparation thereof” (YUHAN CORPORATION, priority 2011, dated 2018).

T1 sequence (Q13639 1-387 isoform Q13639-2): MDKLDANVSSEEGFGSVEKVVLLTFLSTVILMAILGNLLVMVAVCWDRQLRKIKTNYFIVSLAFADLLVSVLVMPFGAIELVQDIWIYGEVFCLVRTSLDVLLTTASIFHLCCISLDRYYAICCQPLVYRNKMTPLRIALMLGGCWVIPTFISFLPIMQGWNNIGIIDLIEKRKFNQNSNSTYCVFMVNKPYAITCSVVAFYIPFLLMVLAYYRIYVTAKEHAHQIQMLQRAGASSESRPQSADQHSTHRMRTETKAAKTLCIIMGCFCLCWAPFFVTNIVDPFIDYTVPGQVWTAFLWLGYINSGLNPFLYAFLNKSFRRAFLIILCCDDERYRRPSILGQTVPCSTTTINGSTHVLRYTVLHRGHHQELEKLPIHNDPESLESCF

The experiment has as its target T1, human 5-HT4(a) (Homo sapiens, UniProt Q13639).
T1 construct: host or cells: GeneBlAzer HTR4-CRE-bla CHO-K1 cells
As to the kind of experiment: Evaluation of agonistic activity in CHO-K1 cells expressing human 5-HT4(a) (GeneBlAzer HTR4-CRE-bla CHO-K1, beta-lactamase reporter). It is filed as cell-based. The conditions noted are these: CHO-K1 cells stably expressing human 5-HT4(a). How it is done: Test Example 1: Evaluation of Agonistic Activity in CHO-K1 Cells Expressing Human 5-HT4(a)
As CHO-K1 cells stably expressing human 5-HT4(a), we used the GeneBlAzer HTR4-CRE-bla CHO-K1 cells (Invitrogen Corp.). The cells were cultured, under the condition of 37[…] and 5% CO2, in a DMEM supplemented with 10% fetal bovine serum (FBS), 25 mM HEPES (pH7.4), 600 μg/ml hygromycin B, 0.1 mM non-essential amino acids, 100 unit/ml penicillin and 100 μg/ml streptomycin. Subcultures were performed three times per one week, each being at less than 80% confluence. At the previous day before treating test compounds, the cells were collected using 0.5% trypsin/EDTA and then diluted with a DMEM supplemented with 1% FBS, 25 mM HEPES, and 0.1 mM non-essential amino acids into 3.125×10^5 cells/ml. 32 μl of the diluted cells were added into 384-well plate (10^4 cells per well) and then incubated overnight. After the overnight culture, 8 μl of the medium having 1% of DMSO was added into the cell-free control well and the non-stimulating control well, respectively. 8 μl of the respective test compound dilutions (which had been prepared by diluting by 100-times with the medium as mentioned in the above) having 1% of DMSO were added to the respective remaining wells. After being cultured in the incubator for 5 hours, the wells of the 384-plate were treated with the substrate solution (8 μl per well) prepared according to the vendor's instruction (i.e., Invitrogen's instruction), and then incubated in the dark room for additional two hours. Agonistic activities on 5-HT4 receptor were evaluated, on the basis of fluorescence values of the cleavage-products by beta-lactamase. After exciting to 410 nm of wavelength using a fluorescence detector (Genios Pro), we measured the fluorescence values at two emission wavelengths (first wavelength: 465 nm, second wavelength: 535 nm). Data were analyzed on the basis of the ratio of fluorescence intensities of each well at the respective wavelengths. Each EC50 value was calculated by non-linear regression analysis using the “GraphPad Prism” program, based on the activities according to 8-different concentrations of the test compounds.
In general, EC50 refers to the concentration at which the effect is half-maximal. Higher therefore signals lower potency in that assay. As for `CCCc1cc(N2CC[C@H](NC(=O)Cc3ccc(N)cc3)C2)nc(Nc2cccc(C#N)c2)n1` [Example 73, (S)-2-(4-aminophenyl)-N-{1-[2-(3-cyanophenylamino)-6-propylpyrimidin-4-yl]pyrrolidin-3-yl}acetamide], the EC50 was 0.27 nM. Under `CCCc1cc(N2CC[C@H](NC(=O)COC)C2)nc(Nc2cccc(C#N)c2)n1` [Example 75, (S)-N-{1-[2-(3-cyanophenylamino)-6-propylpyrimidin-4-yl]pyrrolidin-3-yl}-2-methoxyacetamide] stands 0.22 nM. The molecule `CCCc1cc(N2CC[C@H](NC(=O)Cc3cccnc3)C2)nc(Nc2cccc(C#N)c2)n1` [Example 77, (S)-N-{1-[2-(3-cyanophenylamino)-6-propylpyrimidin-4-yl]pyrrolidin-3-yl}-2-(pyridin-3-yl)acetamide] came in with an EC50 of 0.15 nM. The EC50 values of the last two molecules are within 1.5-fold of each other.

`CCCc1cc(N2CC[C@H](NC(=O)Cc3ccncc3)C2)nc(Nc2cccc(C#N)c2)n1` [Example 78, (S)-N-{1-[2-(3-cyanophenylamino)-6-propylpyrimidin-4-yl]pyrrolidin-3-yl}-2-(pyridin-4-yl)acetamide] gave an EC50 of 0.28 nM.

On to `CCCc1cc(N2CC[C@H](NC(=O)C/C=C/c3ccccc3)C2)nc(Nc2cccc(C#N)c2)n1` [Example 79, (S,E)-N-{1-[2-(3-cyanophenylamino)-6-propylpyrimidin-4-yl]pyrrolidin-3-yl}-4-phenylbut-3-enamide], for which the EC50 was determined as 0.44 nM. In turn, `CCCc1cc(N2CC[C@H](NC(=O)Cc3cccs3)C2)nc(Nc2cccc(C#N)c2)n1` [Example 80, (S)-N-{1-[2-(3-cyanophenylamino)-6-propylpyrimidin-4-yl]pyrrolidin-3-yl}-2-(thiophen-2-yl)acetamide] yielded an EC50 of 0.17 nM. As to `CCCc1cc(N2CC[C@H](NC(=O)C(C)C)C2)nc(Nc2cccc(C#N)c2)n1` [Example 81, (S)-N-{1-[2-(3-cyanophenylamino)-6-propylpyrimidin-4-yl]pyrrolidin-3-yl}isobutyramide], the EC50 stood at 0.205 nM. As to `CCCc1cc(N2CC[C@H](NC(=O)CC(F)(F)F)C2)nc(Nc2cccc(C#N)c2)n1` [Example 82, (S)-N-{1-[2-(3-cyanophenylamino)-6-propylpyrimidin-4-yl]pyrrolidin-3-yl}-3,3,3-trifluoropropanamide], the midpoint of the response, the EC50, lay at 0.048 nM.

The molecule `CCCCCCN[C@H]1CCN(c2cc(CCC)nc(Nc3cccc(C#N)c3)n2)C1` [Example 84, (S)-3-{4-[3-(hexylamino)pyrrolidin-1-yl]-6-propylpyrimidin-2-ylamino}benzonitrile] returned an EC50 of 0.031 nM. For `CCCN[C@H]1CCN(c2cc(CCC)nc(Nc3cccc(C#N)c3)n2)C1` [Example 85, (S)-3-{4-propyl-6-[3-(propylamino)pyrrolidin-1-yl]pyrimidin-2-ylamino}benzonitrile], it took 0.003 nM to reach a half-maximal effect (EC50). This EC50 is about 10-fold lower than that of the molecule before. In turn, `CCCc1cc(N2CC[C@H](NCC3CCCCC3)C2)nc(Nc2cccc(C#N)c2)n1` [Example 86, (S)-3-{4-[3-(cyclohexylmethylamino)pyrrolidin-1-yl]-6-propylpyrimidin-2-ylamino}benzonitrile] had an EC50 of 0.039 nM.

`CCCc1cc(N2CC[C@H](NCc3ccccc3)C2)nc(Nc2cccc(C#N)c2)n1` [Example 87, (S)-3-{4-[3-(benzylamino)pyrrolidin-1-yl]-6-propylpyrimidin-2-ylamino}benzonitrile] came in with an EC50 of 0.048 nM. Take `CCCc1cc(N2CC[C@H](NCCc3ccccc3)C2)nc(Nc2cccc(C#N)c2)n1` [Example 88, (S)-3-{4-[3-(phenethylamino)pyrrolidin-1-yl]-6-propylpyrimidin-2-ylamino}benzonitrile]: the EC50 is 0.041 nM.

In turn, `CCCc1cc(N2CC[C@H](NCCCc3ccccc3)C2)nc(Nc2cccc(C#N)c2)n1` [Example 89, (S)-3-{4-[3-(3-phenylpropylamino)pyrrolidin-1-yl]-6-propylpyrimidin-2-ylamino}benzonitrile] gave an EC50 of 0.08 nM. With `CCCc1cc(N2CC[C@H](NCc3cccc(F)c3)C2)nc(Nc2cccc(C#N)c2)n1` [Example 90, (S)-3-{4-[3-(3-fluorobenzylamino)pyrrolidin-1-yl]-6-propylpyrimidin-2-ylamino}benzonitrile] the figure was 0.091 nM. The molecule `CCCc1cc(N2CC[C@H](NCc3ccc(O)cc3)C2)nc(Nc2cccc(C#N)c2)n1` [Example 91, (S)-3-{4-[3-(4-hydroxybenzylamino)pyrrolidin-1-yl]-6-propylpyrimidin-2-ylamino}benzonitrile] gave an EC50 of 0.014 nM. This EC50 lies about 6.5-fold lower than the previous one. `CCCc1cc(N2CC[C@H](NCc3ccc(CC)cc3)C2)nc(Nc2cccc(C#N)c2)n1` [Example 92, (S)-3-{4-[3-(4-ethylbenzylamino)pyrrolidin-1-yl]-6-propylpyrimidin-2-ylamino}benzonitrile] came in with an EC50 of 0.057 nM. This EC50 lies about 4.1-fold higher than the previous one. With `CCCc1cc(N2CC[C@H](NCCC(C)C)C2)nc(Nc2cccc(C#N)c2)n1` [Example 93, (S)-3-{4-[3-(isopentylamino)pyrrolidin-1-yl]-6-propylpyrimidin-2-ylamino}benzonitrile] the figure was 0.01 nM; with `CCCCCN[C@H]1CCN(c2cc(CCC)nc(Nc3cccc(C#N)c3)n2)C1` [Example 94, (S)-3-{4-[3-(pentylamino)pyrrolidin-1-yl]-6-propylpyrimidin-2-ylamino}benzonitrile], 0.041 nM; with `CCCc1cc(N2CC[C@H](NCC(C)CC)C2)nc(Nc2cccc(C#N)c2)n1` (stereo partly drawn) [Example 95, 3-{4-[(3S)-3-(2-methylbutylamino)pyrrolidin-1-yl]-6-propylpyrimidin-2-ylamino}benzonitrile], 0.081 nM. On to `CCCc1cc(N2CC[C@H](NCC(C)C)C2)nc(Nc2cccc(C#N)c2)n1` [Example 96, (S)-3-{4-[3-(isobutylamino)pyrrolidin-1-yl]-6-propylpyrimidin-2-ylamino}benzonitrile], for which the EC50 was determined as 0.017 nM. For the molecule `CCCc1cc(N2CC[C@H](NCc3ccc(OC)cc3)C2)nc(Nc2cccc(C#N)c2)n1` [Example 97, (S)-3-{4-[3-(4-methoxybenzylamino)pyrrolidin-1-yl]-6-propylpyrimidin-2-ylamino}benzonitrile], the midpoint of the response, the EC50, lay at 0.046 nM. For `CCCc1cc(N2CC[C@H](NCc3ccc(F)cc3)C2)nc(Nc2cccc(C#N)c2)n1` [Example 98, (S)-3-{4-[3-(4-fluorobenzylamino)pyrrolidin-1-yl]-6-propylpyrimidin-2-ylamino}benzonitrile], the EC50 is 0.094 nM.

The molecule `CCCc1cc(N2CC[C@H](NCC3CC3)C2)nc(Nc2cccc(C#N)c2)n1` [Example 99, (S)-3-{4-[3-(cyclopropylmethylamino)pyrrolidin-1-yl]-6-propylpyrimidin-2-ylamino}benzonitrile] came in with an EC50 of 0.0015 nM. `CCCc1cc(N2CC[C@H](N(CC3CC3)CC3CC3)C2)nc(Nc2cccc(C#N)c2)n1` [Example 100, (S)-3-(4-{3-[bis (cyclopropylmethyl)amino]pyrrolidin-1-yl}-6-propylpyrimidin-2-ylamino)benzonitrile] yielded an EC50 of 0.31 nM.

Take `CCCc1cc(N2CC[C@H](NCc3cccnc3)C2)nc(Nc2cccc(C#N)c2)n1` [Example 102, (S)-3-{4-propyl-6-[3-(pyridin-3-ylmethylamino)pyrrolidin-1-yl]pyrimidin-2-ylamino}benzonitrile]: the EC50 turned out to be 0.39 nM.

Regarding `CCCc1cc(N2CC[C@H](NCc3ccncc3)C2)nc(Nc2cccc(C#N)c2)n1` [Example 103, (S)-3-{4-propyl-6-[3-(pyridin-4-ylmethylamino)pyrrolidin-1-yl]pyrimidin-2-ylamino}benzonitrile], the EC50 turned out to be 0.067 nM. As to `CCCc1cc(N2CC[C@H](NCC(C)(C)C)C2)nc(Nc2cccc(C#N)c2)n1` [Example 105, (S)-3-{4-[3-(neopentylamino)pyrrolidin-1-yl]-6-propylpyrimidin-2-ylamino}benzonitrile], a half-maximal effect (EC50) was put at 0.005 nM. For the molecule `CCCc1cc(N2CC[C@H](NCc3ccccc3F)C2)nc(Nc2cccc(C#N)c2)n1` [Example 106, (S)-3-{4-[3-(2-fluorobenzylamino)pyrrolidin-1-yl]-6-propylpyrimidin-2-ylamino}benzonitrile], the response was half-maximal at 0.13 nM (EC50). Take `CCCc1cc(N2CC[C@H](NCc3cccc(C(F)(F)F)c3)C2)nc(Nc2cccc(C#N)c2)n1` [Example 107, (S)-3-(4-propyl-6-{3-[3-(trifluoromethyl)benzylamino]pyrrolidin-1-yl}pyrimidin-2-ylamino)benzonitrile]: the response was half-maximal at 0.42 nM (EC50).

`CCCc1cc(N2CC[C@H](NCc3ccc(C(F)(F)F)cc3)C2)nc(Nc2cccc(C#N)c2)n1` [Example 108, (S)-3-(4-propyl-6-{3-[4-(trifluoromethyl)benzylamino]pyrrolidin-1-yl}pyrimidin-2-ylamino)benzonitrile] had an EC50 of 0.21 nM.
